Here are results for 23 compounds from US20250171423A1, “PHARMACEUTICAL COMPOUNDS FOR THE TREATMENT OF COMPLEMENT MEDIATED DISORDERS” (Achillion Pharmaceuticals, Inc., priority 2020, published 2025).

SMILES strings stand for the structures. pIC50: −log10 of the molar value.

The conditions of data set [1]: from C=CCCCCCCCCC(=O)N[C@@H](CCOc1ccccc1)C(=O)NCC(=O)N1[C@H]2C[C@@]2(COCCCC=C)C[C@H]1C(=O)OCc1ccccc1; rcm bond; Grubbs 1st catalyst; DCM; 14.0 mM; 28.0 °C; 16.0 h.
For data set [2], the target named is T1, Human complement C1s enzyme (Homo sapiens, UniProt P09871).
T1 construct: purified from human serum, Complement Technology, Inc; purchased Complement Technology, Inc; host or cells: human serum
T1 sequence (P09871 438-688 limits assumed): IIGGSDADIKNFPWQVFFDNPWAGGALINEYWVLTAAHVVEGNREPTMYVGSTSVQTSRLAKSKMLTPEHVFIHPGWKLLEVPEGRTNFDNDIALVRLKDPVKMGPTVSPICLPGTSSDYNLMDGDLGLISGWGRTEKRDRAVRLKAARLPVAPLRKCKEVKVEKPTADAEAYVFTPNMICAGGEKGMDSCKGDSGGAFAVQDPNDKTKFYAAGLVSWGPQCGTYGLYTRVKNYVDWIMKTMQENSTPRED
T1 sequence (P09871 16-437 partner limits assumed): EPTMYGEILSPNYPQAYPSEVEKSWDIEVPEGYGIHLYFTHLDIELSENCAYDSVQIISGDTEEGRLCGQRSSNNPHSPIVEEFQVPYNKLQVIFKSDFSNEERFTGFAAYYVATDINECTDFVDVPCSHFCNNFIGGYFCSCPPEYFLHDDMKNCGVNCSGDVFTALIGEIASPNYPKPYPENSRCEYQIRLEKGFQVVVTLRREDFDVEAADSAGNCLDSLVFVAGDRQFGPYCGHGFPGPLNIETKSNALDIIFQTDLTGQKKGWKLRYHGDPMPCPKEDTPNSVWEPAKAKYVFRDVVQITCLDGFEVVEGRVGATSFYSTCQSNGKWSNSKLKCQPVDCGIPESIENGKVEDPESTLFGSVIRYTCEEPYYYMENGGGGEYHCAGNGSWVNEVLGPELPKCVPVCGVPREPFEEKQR
Briefly: Human C1s Enzyme Assay. The class given is biochemical. The settings on record: human C1s 1.16 nM, 5 min preincubation, substrate Z-L-Lys-SBzl 100 μM, A405; read-out: C1s Protease Activity. In outline: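 IC50 values were fitted by nonlinear regression to rates measured as A405 every 30 s for 30 min. The thioester substrate Z-L-Lys-SBzl and Ellman's reagent were each at 100 μM. Serum-derived C1s at 1.16 nM final had 5 min of room-temperature preincubation with compound (pH 7.5 Tris buffer, 1 M NaCl).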

In data set [1], `O=C1CCCCCCCC/C=C/CCCOC[C@@]23C[C@@H]2N(C(=O)CNC(=O)[C@H](CCOc2ccccc2)N1)[C@H](C(=O)OCc1ccccc1)C3` had a ring closure, yield of all isomers of 43.4%. With `CC(=O)NCCOC[C@@]12C[C@@H]1N(C(=O)CNC(=O)c1ccc(Oc3ccccc3)cc1)[C@H](C(=O)N[C@H](C)c1cc(C(=N)N)cs1)C2` [Compound 141, (1S,3S,5R)-5-((2-acetamidoethoxy)methyl)-N-((R)-1-(4-carbamimidoylthiophen-2-yl)ethyl)-2-((4-phenoxybenzoyl)glycyl)-2-azabicyclo[3.1.0]hexane-3-carboxamide], the pIC50 in data set [2] is > 7.00. In the case of `N=C(N)c1csc(CNC(=O)[C@@H]2CC(c3nccs3)CN2C(=O)CNC(=O)c2ccc(Oc3ccccc3)cc2)c1` (stereo in doubt) [Compound 209, (2S,4R)-N-((4-carbamimidoylthiophen-2-yl)methyl)-1-((4-phenoxybenzoyl)glycyl)-4-(thiazol-2-yl)pyrrolidine-2-carboxamide], the pIC50 in data set [2] is > 7.00. For `COC(=N)c1csc(CNC(=O)[C@@H]2C[C@]3(C)C[C@@H]3N2C(=O)CNC(=O)c2ccc(Oc3ccccc3)cc2)c1` [Compound 32, methyl 5-(((1S,3S,5S)-5-methyl-2-((4-phenoxybenzoyl)glycyl)-2-azabicyclo[3.1.0]-hexane-3-carboxamido)methyl)thiophene-3-carbimidate], the pIC50 in data set [2] is 6.00 to 7.00. Turning to `COC(=O)C(NC(=O)[C@@H]1C[C@@H](OC(F)F)CN1C(=O)CNC(=O)c1ccc(Oc2ccccc2)cc1)c1cc(C(=N)N)cs1` (stereo partly drawn) [Compound 189, methyl 2-(4-carbamimidoylthiophen-2-yl)-2-((2S,4R)-4-(difluoromethoxy)-1-((4-phenoxybenzoyl)glycyl)pyrrolidine-2-carboxamido)acetate], the pIC50 in data set [2] was < 6.00. On the same count and under the same terms, in the case of `C[C@@]12C[C@@H]1N(C(=O)CNC(=O)CCCOc1cccc3ccccc13)[C@H](C(=O)NCc1cc(C(=N)N)cs1)C2` [Compound 207, (1S,3S,5S)-N-((4-carbamimidoylthiophen-2-yl)methyl)-5-methyl-2-((4-(naphthalen-1-yloxy)butanoyl)glycyl)-2-azabicyclo[3.1.0]hexane-3-carboxamide] it was > 7.00; in that of `N=C(N)c1csc(CNC(=O)C23CCC(CC2)N3C(=O)CNC(=O)c2ccc(Oc3ccccc3)cc2)c1` [Compound 16, N-((4-carbamimidoylthiophen-2-yl)methyl)-7-((4-phenoxybenzoyl)glycyl)-7-azabicyclo[2.2.1]heptane-1-carboxamide], 6.00 to 7.00. For the compound `C[C@@H](NC(=O)[C@@H]1C[C@@H](S(C)(=O)=O)CN1C(=O)CNC(=O)CCCOc1ccc(F)cc1)c1cc(C(=N)N)cs1` [Compound 107, (2S,4R)-N-((R)-1-(4-carbamimidoylthiophen-2-yl)ethyl)-1-((4-(4-fluorophenoxy)-butanoyl)glycyl)-4-(methylsulfonyl)pyrrolidine-2-carboxamide], the pIC50 in data set [2] was > 7.00.

Regarding `C[C@@]12C[C@@H]1N(C(=O)CNC(=O)c1ccc(Oc3ccccc3)cc1)[C@H](C(=O)NCc1cc(C(=N)N)c(F)s1)C2` [Compound 239, (1S,3S,5S)-N-((4-carbamimidoyl-5-fluorothiophen-2-yl)methyl)-5-methyl-2-((4-phenoxybenzoyl)glycyl)-2-azabicyclo[3.1.0]hexane-3-carboxamide], the pIC50 in data set [2] was > 7.00.

`N=C(N)c1csc([C@H](NC(=O)[C@@H]2C[C@@H](OC(F)F)CN2C(=O)CNC(=O)c2ccc(Oc3ccccc3)cc2)C(N)=O)c1` (single isomer, unassigned) [Compound 215]: the pIC50 in data set [2] is < 6.00. For `C[C@@H](NC(=O)[C@@H]1C[C@@H](OC(F)F)CN1C(=O)CNC(=O)CCCOc1ccccc1)c1cc(C(=N)N)cs1` [Compound 123, (2S,4R)-N-((R)-1-(4-carbamimidoylthiophen-2-yl)ethyl)-4-(difluoromethoxy)-1-((4-phenoxybutanoyl)glycyl)pyrrolidine-2-carboxamide], the pIC50 in data set [2] is > 7.00.

Regarding `C[C@@H](NC(=O)[C@@H]1C[C@]2(C)C[C@@H]2N1C(=O)CNC(=O)[C@H](CCOc1ccccc1)NC(=O)CCC(=O)O)c1cc(C(=N)N)cs1` [Compound 184, 4-(((S)-1-((2-((1S,3S,5S)-3-(((R)-1-(4-carbamimidoylthiophen-2-yl)ethyl)carbamoyl)-5-methyl-2-azabicyclo[3.1.0]hexan-2-yl)-2-oxoethyl)amino)-1-oxo-4-phenoxybutan-2-yl)amino)-4-oxobutanoic acid], the pIC50 in data set [2] was > 7.00. Consider `N=C(N)c1csc(CNC(=O)[C@@H]2CC(O)(C(F)(F)F)CN2C(=O)CNC(=O)CCCOc2ccccc2)c1` (stereo partly drawn) [Compound 62, (2S)-N-((4-carbamimidoylthiophen-2-yl)methyl)-4-hydroxy-1-((4-phenoxybutanoyl)-glycyl)-4-(trifluoromethyl)pyrrolidine-2-carboxamide], for which the pIC50 in data set [2] was > 7.00. Take `C[C@@]12C[C@@H]1N(C(=O)CNC(=O)c1ccc(Oc3ccccc3)cc1)[C@H](C(=O)NCc1nnc(C(=N)N)o1)C2` [Compound 201, (1S,3S,5S)-N-((5-carbamimidoyl-1,3,4-oxadiazol-2-yl)methyl)-5-methyl-2-((4-phenoxybenzoyl)glycyl)-2-azabicyclo[3.1.0]hexane-3-carboxamide]: in data set [2], the pIC50 was < 6.00. Turning to `C[C@@]12C[C@@H]1N(C(=O)CNC(=O)c1ccc(Oc3ccccc3)cc1)[C@H](C(=O)NCc1cc(C3=NCCN3)cs1)C2` [Compound 37, (1S,3S,5S)-N-((4-(4,5-dihydro-1H-imidazol-2-yl)thiophen-2-yl)methyl)-5-methyl-2-((4-phenoxybenzoyl)glycyl)-2-azabicyclo[3.1.0]hexane-3-carboxamide], in data set [2], the pIC50 is < 6.00.

In the case of `CC(C)O[C@@H]1C[C@@H](C(=O)N[C@H](C)c2cc(C(=N)N)cs2)N(C(=O)CNC(=O)CCCOc2ccccc2)C1` [Compound 166, (2S,4R)-N-((R)-1-(4-carbamimidoylthiophen-2-yl)ethyl)-4-isopropoxy-1-((4-phenoxybutanoyl)glycyl)pyrrolidine-2-carboxamide], the pIC50 in data set [2] is > 7.00. With `N=C(N)c1csc([C@H](NC(=O)[C@@H]2CC3(CN2C(=O)CNC(=O)CCCOc2ccccc2)OCCO3)C2CCCC2)c1` [Compound 174, (S)-N-((R)-(4-carbamimidoylthiophen-2-yl)(cyclopentyl)methyl)-7-((4-phenoxybutanoyl)glycyl)-1,4-dioxa-7-azaspiro[4.4]nonane-8-carboxamide], the pIC50 in data set [2] is < 6.00.

On to `C[C@@]12C[C@@H]1N(C(=O)CNC(=O)c1ccc(Oc3ccccc3)cc1)[C@H](C(=O)NS(=O)(=O)c1cc(C(=N)N)cs1)C2` [Compound 86, (1S,3S,5S)-N-((4-carbamimidoylthiophen-2-yl)sulfonyl)-5-methyl-2-((4-phenoxy-benzoyl)glycyl)-2-azabicyclo[3.1.0]hexane-3-carboxamide], for which the pIC50 in data set [2] is < 6.00. In the case of `N=C(N)c1csc(CNC(=O)[C@@H]2C[C@H](OC(F)(F)F)CN2C(=O)CNC(=O)c2ccc(Oc3ccccc3)cc2)c1` [Compound 244, (2S,4S)-N-((4-carbamimidoylthiophen-2-yl)methyl)-1-((4-phenoxybenzoyl)glycyl)-4-(trifluoromethoxy)pyrrolidine-2-carboxamide], the pIC50 in data set [2] was > 7.00. With `C[C@@]12C[C@@H]1N(C(=O)CNC(=O)c1ccc(Oc3ccccc3)cc1)[C@H](C(=O)NCc1cc(-c3noc(=O)[nH]3)cs1)C2` [Compound 34, (1S,3S,5S)-5-methyl-N-((4-(5-oxo-4,5-dihydro-1,2,4-oxadiazol-3-yl)thiophen-2-yl)methyl)-2-((4-phenoxybenzoyl)glycyl)-2-azabicyclo[3.1.0]hexane-3-carboxamide], the pIC50 in data set [2] is < 6.00.

`N=C(N)c1csc(CNC(=O)[C@@H]2C[C@](F)(CO)CN2C(=O)CNC(=O)CCCOc2ccccc2)c1` [Compound 66, (2S,4R)-N-((4-carbamimidoylthiophen-2-yl)methyl)-4-fluoro-4-(hydroxymethyl)-1-((4-phenoxybutanoyl)glycyl)pyrrolidine-2-carboxamide]: in data set [2], the pIC50 was > 7.00. With `N=C(N)c1csc(CNC(=O)[C@@H]2CC(=C(F)F)CN2C(=O)CNC(=O)c2ccc(Oc3ccccc3)cc2)c1` [Compound 1, (S)-N-((4-carbamimidoylthiophen-2-yl)methyl)-4-(difluoromethylene)-1-((4-phenoxybenzoyl)glycyl)pyrrolidine-2-carboxamide], the pIC50 in data set [2] is > 7.00. Consider `C[C@@]12C[C@@H]1N(C(=O)CNC(=O)c1ccc(Oc3ccccc3)cc1)[C@H](C(=O)NCc1ccc(C(=N)N)cn1)C2` [Compound 4], for which the pIC50 in data set [2] was 6.00 to 7.00.
